# Assay results as given in US10085953B2, “Skin cancer treatment” (Avexxin AS, priority 2014, dated 2018).
# “Also recorded” adds a separate entry of the source.
# Test system: EGF-induced AA release in HaCaT keratinocytes
# Test: [3H]-Arachidonic acid release assay in EGF-stimulated HaCaT keratinocytes
# Assay type: cell-based, human
# Details: EGF 100 ng/ml 1 h, dose-dependent, FIG. 2
# Procedure: The spontaneously immortalized skin keratinocyte cell line HaCaT (kindly provided by Prof. N. Fusenig, Heidelberg, Deutsches Krebsforschungszentrum, Germany) was cultured in DMEM supplemented with 10% (v/v) FBS, 0.3 mg/ml glutamine, and 0.1 mg/ml gentamicin at 37° C. with 5% CO2 in a humidified atmosphere. For release assays, flow cytometry cell cycle analysis and in vitro cPLA2α activity assay, cells were grown in 48 well trays or in 6 well trays, respectively. Cells were cultivated until 2 days post-confluency; serum starved in DMEM/0.5% FBS overnight and processed at day 3 post-confluence to ensure differentiation. Experiments were performed in DMEM/0.5% FBS. Untreated cells without inducing agents were included for unstimulated control. […] Cells were lysed and 200 μg of total protein was analyzed for cPLA2α activity as described. […] Following washing three times with Tris-buffered saline containing […], immunoreactive proteins were detected by horseradish peroxidase-conjugated secondary antibody (1 hour at room temperature) and SuperSignal® West Femto Maximum Sensivity substrate. Blots were analyzed by the BioRad Image Lab software, and target protein band intensities were normalized to α-tubulin. […] After labelling, the cells were washed twice with phosphate-buffered saline (PBS) containing fatty acid free BSA (2 mg/ml) (fBSA) in order to remove unincorporated radioactivity. […]
compound,measurement,value
CC/C=C\C/C=C\C/C=C\C/C=C\C/C=C\CCSCC(=O)C(F)(F)F [AVX002],effect on EGF-induced AA-release,completely abrogated; also recorded: reduced AA-release to below basal release in a dose-dependent manner
